Test results: PMC13071878, “Yeast Display Technology Enables Rapid Discovery of Low-Nanomolar Macrocyclic Peptide Inhibitors of Human Angiotensin-Converting Enzyme 2” (Journal of Medicinal Chemistry, 2026)

Experiments:
[1] = system: mouse model of induced colitis; parameters: method as in ref 26 (Byrnes et al. 2009); details: 300 mg/kg twice daily, citation mark lost in text, ref 26 (Byrnes et al. 2009); cited from earlier work
hACE2 [2] = target: T1, hACE2 (Homo sapiens, UniProt Q9BYF1); test: biochemical
T1 sequence (Q9BYF1 19-615): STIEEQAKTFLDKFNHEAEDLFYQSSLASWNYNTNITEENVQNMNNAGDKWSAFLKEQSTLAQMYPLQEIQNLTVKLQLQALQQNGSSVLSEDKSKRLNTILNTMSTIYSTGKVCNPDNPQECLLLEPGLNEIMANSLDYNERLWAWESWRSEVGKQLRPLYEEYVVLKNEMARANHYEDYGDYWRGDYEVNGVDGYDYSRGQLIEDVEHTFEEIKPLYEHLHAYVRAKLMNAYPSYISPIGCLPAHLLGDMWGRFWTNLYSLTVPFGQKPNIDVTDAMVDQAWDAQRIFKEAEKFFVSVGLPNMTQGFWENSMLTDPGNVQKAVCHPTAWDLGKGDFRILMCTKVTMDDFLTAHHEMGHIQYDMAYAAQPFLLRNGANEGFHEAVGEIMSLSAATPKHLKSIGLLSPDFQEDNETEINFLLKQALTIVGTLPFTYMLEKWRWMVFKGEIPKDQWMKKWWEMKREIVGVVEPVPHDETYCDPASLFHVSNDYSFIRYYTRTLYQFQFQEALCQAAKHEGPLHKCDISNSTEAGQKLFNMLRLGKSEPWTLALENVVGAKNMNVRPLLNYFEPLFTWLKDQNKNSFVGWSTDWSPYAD
Procedure: The activity assay was performed by incubating 0.25 nM of hACE2 with 50 μM fluorogenic substrate Mca-Ala-Pro-Lys­(Dnp)–OH (MedChemExpress, Monmouth Junction, NJ, USA) and 3-fold MP dilutions (ranging from 0.03 nM to 100 μM). […] All reagents were diluted in 10 mM Tris–HCl, pH 7.4, 300 mM NaCl, 100 μM ZnCl2, 0.1% w/v BSA, and 0.1% v/v DMSO assay buffer. The measurements were performed on a Berthold TriStar LB 941 microplate reader (Berthold Technologies, Bad Wildbad, Germany) using flat-bottom 96-well half area Corning Costar plates (Corning, New York, USA). The enzymatic reactions were performed at 25 °C for 90 min, under shaking with a maximum excitation wavelength (λex) of 320 nm and maximum emission wavelength (λem) of 405 nm. The initial velocities were monitored as changes in fluorescence intensity. Half-maximum inhibitory concentration (IC50) values were determined using GraphPad Prism v8.2.1 software (GraphPad software Inc., San Diego, CA, USA). […] Fluorescence was recorded as described earlier (λex = 320 nm, λem = 405 nm) using a Berthold TriStar LB 941 microplate reader (Berthold Technologies, Bad Wildbad, Germany). Initial velocities (V 0) were plotted against substrate concentrations [S] and analyzed via nonlinear regression using a one-site specific binding model using GraphPad Prism v8.2.1 software (GraphPad software Inc., San Diego, CA, USA). […]

hACE1 = target: T2, hACE1 (Homo sapiens, UniProt P12821); test: biochemical
T2 construct: purchased R&D Systems
T2 sequence (P12821 30-1306): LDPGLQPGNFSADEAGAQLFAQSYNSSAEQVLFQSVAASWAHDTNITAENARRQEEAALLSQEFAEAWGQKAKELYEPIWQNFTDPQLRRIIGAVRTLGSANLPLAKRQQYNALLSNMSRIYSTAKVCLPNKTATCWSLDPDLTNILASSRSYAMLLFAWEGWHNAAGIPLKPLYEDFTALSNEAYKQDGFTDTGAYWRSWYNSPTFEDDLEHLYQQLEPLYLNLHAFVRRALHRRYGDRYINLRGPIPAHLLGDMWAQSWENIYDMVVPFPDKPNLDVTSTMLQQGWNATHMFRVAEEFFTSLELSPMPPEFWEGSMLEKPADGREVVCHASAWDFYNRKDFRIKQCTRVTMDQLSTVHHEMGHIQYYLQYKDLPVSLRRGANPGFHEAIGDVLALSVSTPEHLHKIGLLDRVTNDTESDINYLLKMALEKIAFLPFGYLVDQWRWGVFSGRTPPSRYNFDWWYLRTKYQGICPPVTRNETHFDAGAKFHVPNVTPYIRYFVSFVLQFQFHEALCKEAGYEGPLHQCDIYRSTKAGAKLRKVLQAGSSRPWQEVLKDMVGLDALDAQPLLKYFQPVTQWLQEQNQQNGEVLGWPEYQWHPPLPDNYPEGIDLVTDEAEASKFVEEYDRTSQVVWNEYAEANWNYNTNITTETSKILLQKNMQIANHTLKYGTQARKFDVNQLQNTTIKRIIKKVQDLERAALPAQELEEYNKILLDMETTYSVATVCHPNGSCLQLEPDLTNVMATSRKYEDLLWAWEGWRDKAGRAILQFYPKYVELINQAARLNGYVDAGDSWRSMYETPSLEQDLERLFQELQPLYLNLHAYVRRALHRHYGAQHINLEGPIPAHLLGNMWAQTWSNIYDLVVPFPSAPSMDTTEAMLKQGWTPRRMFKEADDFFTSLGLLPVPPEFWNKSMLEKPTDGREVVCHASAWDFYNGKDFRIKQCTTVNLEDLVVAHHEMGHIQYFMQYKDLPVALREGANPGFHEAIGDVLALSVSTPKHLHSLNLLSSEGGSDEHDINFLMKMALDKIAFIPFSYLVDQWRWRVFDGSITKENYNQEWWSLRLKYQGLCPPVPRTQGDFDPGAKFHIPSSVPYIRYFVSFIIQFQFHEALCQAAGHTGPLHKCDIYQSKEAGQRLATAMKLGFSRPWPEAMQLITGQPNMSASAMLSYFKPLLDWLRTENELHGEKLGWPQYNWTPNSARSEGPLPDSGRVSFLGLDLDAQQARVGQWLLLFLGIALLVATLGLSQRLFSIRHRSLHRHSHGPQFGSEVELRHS
Procedure: The activity assay was performed by incubating 0.25 nM of hACE2 with 50 μM fluorogenic substrate Mca-Ala-Pro-Lys­(Dnp)–OH (MedChemExpress, Monmouth Junction, NJ, USA) and 3-fold MP dilutions (ranging from 0.03 nM to 100 μM). […] All reagents were diluted in 10 mM Tris–HCl, pH 7.4, 300 mM NaCl, 100 μM ZnCl2, 0.1% w/v BSA, and 0.1% v/v DMSO assay buffer. The measurements were performed on a Berthold TriStar LB 941 microplate reader (Berthold Technologies, Bad Wildbad, Germany) using flat-bottom 96-well half area Corning Costar plates (Corning, New York, USA). The enzymatic reactions were performed at 25 °C for 90 min, under shaking with a maximum excitation wavelength (λex) of 320 nm and maximum emission wavelength (λem) of 405 nm. The initial velocities were monitored as changes in fluorescence intensity. Half-maximum inhibitory concentration (IC50) values were determined using GraphPad Prism v8.2.1 software (GraphPad software Inc., San Diego, CA, USA). […] Reactions were initiated by adding hACE2 (final concentration 0.25 nM) to the fluorogenic substrate in assay buffer at 25 °C. Fluorescence was recorded as described earlier (λex = 320 nm, λem = 405 nm) using a Berthold TriStar LB 941 microplate reader (Berthold Technologies, Bad Wildbad, Germany). Initial velocities (V 0) were plotted against substrate concentrations [S] and analyzed via nonlinear regression using a one-site specific binding model using GraphPad Prism v8.2.1 software (GraphPad software Inc., San Diego, CA, USA). […] All reagents were diluted in 10 mM Tris-HCl, pH 7.4, 300 mM NaCl, 100 μM ZnCl2, 0.1% w/v BSA, and 0.1% v/v DMSO buffer. Measurements and data analysis were performed as mentioned above.

hACE2 [3] = target: T1, hACE2; test: Isothermal titration calorimetry of synthetic MPs with hACE2; format: binding; details: 25 °C
Procedure: Isothermal titration calorimetry (ITC) experiments were performed at 25 °C using a MicroCal iTC200 instrument ([…], Malvern Panalytical, Malvern, UK). The hACE2 protein (initial stock 11 mg/mL, 20 mM Tris pH 7.4, 200 mM NaCl) was diluted into the assay buffer (100 mM Tris pH 7.4, 200 mM NaCl) to a final concentration of 5 μM. […] Titrations consisted of an initial 0.4 μL injection (excluded from subsequent data analysis), followed by 18 injections of 2 μL each, with a stirring rate of 750 rpm to ensure rapid mixing. A 120 s interval was maintained between injections to ensure the baseline returned to equilibrium. Blank experiments involving the titration of the synthetic MPs into the assay buffer were performed to determine and subtract the heats of dilution. Data processing was conducted using the Origin software package version 7 (OriginLab Corporation, Northampton, MA, USA). The integrated heat signals were fitted to a single-site binding model to determine the association constant (K A), the dissociation constant ([…]), the enthalpy change (ΔH), and the binding stoichiometry (n). The Gibbs free energy (ΔG) and the entropy change (ΔS) were calculated using the standard thermodynamic relationship: ΔG=ΔH−TΔS=−RTln(KA)

hACE2 [4] = target: T1, hACE2; test: Grating-coupled interferometry of synthetic MPs on immobilized hACE2; format: binding; details: synthetic MP, immobilized hACE2, 25 °C, pH 7.4, n = 1; read-out: KD (GCI)
Procedure: Measurements were performed using a Creoptix WAVEsystem and a 4PCH-STA WAVEchip (Creoptix, Malvern Panalytical, Malvern, UK). Prior to immobilization, all four flow channels were conditioned with 100 mM sodium borate, 1 M NaCl buffer pH 9.0, for 180 s at 10 μL/min, followed by three start-up cycles (3 cycles of 60 s at 10 μL/min) in running buffer (1X PBS pH 7.4 supplemented with 0.005% v/v Tween-20). Biotinylated hACE2 (10 μg/mL in running buffer) was captured on the chip surface with a 420 s injection cycle at 10 μL/min, achieving a target immobilization level of approximately 1000 pg/mm^2 surface mass per flow cell. Excess of unbound hACE2 was removed by washing with running buffer for 60 s at 10 μL/min. Binding experiments were conducted using regeneration-free kinetics (RFK). Seven serial 2-fold dilutions of each synthetic MP (2.5, 5, 10, 20, 40, 80, and 160 nM in running buffer) were injected at 25 °C with a continuous flow rate of 60 μL/min. Each MP concentration was allowed to associate for 60 s and dissociate for 45 s, with a final dissociation phase of 300 s monitored after the highest concentration. Response signals were double-referenced by subtracting the signal from an unmodified reference channel (untreated flow cell without hACE2 protein) and the signal from blank buffer injections to correct for bulk refractive index changes and systematic artifacts.

[5] = Plasma stability of synthetic peptides (LC-MS); details: 37 °C
Procedure: The mixtures were incubated at 37 °C in a water bath (VWR, Pennsylvania, PA, USA). At designated time points (0, 0.25, 0.5, 1, 2, 4, 8, 24, and 48 h), 100 μL aliquots were withdrawn and quenched with 100 μL of 100% v/v ACN. Following centrifugation (10 min at 15000 g, 4 °C), 100 μL of the supernatant was collected and diluted with 50 μL of solvent A (99.9% v/v H2O and 0.1% v/v FA). Samples were characterized by LC–MS using an Agilent 1260 Infinity II LC system coupled to an InfinityLab LC/MSD mass spectrometer (Agilent Technologies, Santa Clara, CA, USA). The system operated with a standard ESI source in negative ionization mode. Separation was performed on a reversed-phase Symmetry C18 column (5 μm, 150 mm × 4.6 mm, Waters, Milford, MA, USA) using a linear gradient of 10–100% solvent B over 22 min at a flow rate of 0.6 mL/min (Solvent A: 99.9% v/v H2O and 0.1% v/v FA; Solvent B: 99.9% v/v ACN and 0.1% v/v FA). Data acquisition, processing, and analysis were performed using MestReNova v.12.0.1 (Mestrelab Research, Santiago de Compostela, Spain). All samples were analyzed in duplicate (n = 2). The percentage of remaining peptide was calculated by integrating the peak areas, with the area at 0 h defined as 100%. Half-lives (t 1/2) were determined via nonlinear regression analysis using GraphPad Prism (GraphPad software Inc., San Diego, CA, USA). Data are presented as mean values ± s.d.

CC(C)C[C@H](N[C@@H](Cc1cncn1Cc1cc(Cl)cc(Cl)c1)C(=O)O)C(=O)O [MLN-4760]
effect on disease severity [1]: reduce disease severity

CC(C)C[C@@H]1NC(=O)[C@H](Cc2ccccc2)NC(=O)[C@@H](NC(=O)[C@H](C)N)CSSC[C@@H](C(=O)N[C@@H](CO)C(=O)NCC(N)=O)NC(=O)[C@H](Cc2c[nH]c3ccccc23)NC(=O)[C@H](CC(C)C)NC(=O)[C@H](Cc2c[nH]c3ccccc23)NC(=O)[C@@H]2CSSC[C@H](NC(=O)[C@H](CCCNC(=N)N)NC1=O)C(=O)N[C@@H](Cc1c[nH]cn1)C(=O)N[C@@H](CCCNC(=N)N)C(=O)N[C@@H](CC(=O)O)C(=O)N[C@@H](C(C)C)C(=O)N[C@@H](CCCCN)C(=O)N2 [GR3.1.2]
Ki (hACE2 [2]): 1.5 nM
IC50 (hACE1): > 100000 nM
Ki (hACE1): > 100000 nM
ΔH (ITC) (hACE2 [3]): -8.15 ± 0.14 kcal/mol
-TΔS (ITC) (hACE2 [3]; calculated): -1.96 kcal/mol
Kd (hACE2 [4]): 4.1 nM
t1/2 times longer than GR1.1 ([5]; human plasma): 1.5 times
t1/2 times longer than GR1.4 ([5]; human plasma): 1.3 times
half-life ([5]; human, plasma, plasma half-life t1/2, human plasma, 10 μM, LC-MS, n = 2): 8.6 h
